The supplement of paper PMC10307832

What was measured:
Assay in all cases: relative viability (nuclei count vs DMSO), 5 days (fraction); higher = more cells survive
Carfilzomib + AZD7762 = compound: CC(C)C[C@H](NC(=O)[C@H](CCc1ccccc1)NC(=O)CN1CCOCC1)C(=O)N[C@@H](Cc1ccccc1)C(=O)N[C@@H](CC(C)C)C(=O)[C@@]1(C)CO1 [Carfilzomib] + NC(=O)Nc1cc(-c2cccc(F)c2)sc1C(=O)N[C@H]1CCCNC1 [AZD7762] (partner 0.2 µM)
How it was run: (§1)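 For relative viability, nuclei counts in treated wells were divided by those in vehicle wells. Lung cancer cell lines had been pin-tool dosed in 1536-well plates the day after seeding and cultured for 5 days, then fixed and stained in one step (final 0.05% Triton X-100, 1% formaldehyde, 1 ug/ml Hoechst) and imaged at 4×. Doses were one drug alone or a fixed anchor-drug dose plus five library-drug doses (not always all listed) in √10 steps, and values are duplicate-plate medians.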

Carfilzomib + Phenformin = compound: CC(C)C[C@H](NC(=O)[C@H](CCc1ccccc1)NC(=O)CN1CCOCC1)C(=O)N[C@@H](Cc1ccccc1)C(=O)N[C@@H](CC(C)C)C(=O)[C@@]1(C)CO1 [Carfilzomib] + N=C(N)NC(=N)NCCc1ccccc1 [Phenformin] (partner 250 µM)
How it was run: as §1

Crizotinib + Olaparib = compound: C[C@@H](Oc1cc(-c2cnn(C3CCNCC3)c2)cnc1N)c1c(Cl)ccc(F)c1Cl [Crizotinib] + O=C(c1cc(Cc2n[nH]c(=O)c3ccccc23)ccc1F)N1CCN(C(=O)C2CC2)CC1 [Olaparib] (partner 8 µM)
How it was run: as §1

Crizotinib + Pictilisib = compound: C[C@@H](Oc1cc(-c2cnn(C3CCNCC3)c2)cnc1N)c1c(Cl)ccc(F)c1Cl [Crizotinib] + CS(=O)(=O)N1CCN(Cc2cc3nc(-c4cccc5[nH]ncc45)nc(N4CCOCC4)c3s2)CC1 [Pictilisib] (partner 1 µM)
How it was run: as §1

Row | Cell Line | relative viability (Carfilzomib + AZD7762; first compound 0.001 µM) | relative viability (Carfilzomib + AZD7762; first compound 0.003162 µM) | relative viability (Carfilzomib + AZD7762; first compound 0.01 µM) | relative viability (Carfilzomib + AZD7762; first compound 0.03162 µM) | relative viability (Carfilzomib + AZD7762; first compound 0.1 µM) | relative viability (Carfilzomib + Phenformin; first compound 0.001 µM) | relative viability (Carfilzomib + Phenformin; first compound 0.003162 µM) | relative viability (Carfilzomib + Phenformin; first compound 0.01 µM) | relative viability (Carfilzomib + Phenformin; first compound 0.03162 µM) | relative viability (Carfilzomib + Phenformin; first compound 0.1 µM) | relative viability (Crizotinib + Olaparib; first compound 0.01 µM) | relative viability (Crizotinib + Olaparib; first compound 0.03162 µM) | relative viability (Crizotinib + Olaparib; first compound 0.1 µM) | relative viability (Crizotinib + Olaparib; first compound 0.3162 µM) | relative viability (Crizotinib + Olaparib; first compound 1 µM) | relative viability (Crizotinib + Pictilisib; first compound 0.01 µM) | relative viability (Crizotinib + Pictilisib; first compound 0.03162 µM) | relative viability (Crizotinib + Pictilisib; first compound 0.1 µM) | relative viability (Crizotinib + Pictilisib; first compound 0.3162 µM) | relative viability (Crizotinib + Pictilisib; first compound 1 µM)
1 | 201T | 0.67 | 0.574 | 0.626 | 0.591 | 0.461 | 0.404 | 0.482 | 0.483 | 0.464 | 0.328 | 0.776 | 0.83 | 0.892 | 0.846 | 0.861 | 0.65 | 0.74 | 0.723 | 0.648 | 0.678
2 | A-427 | 0.725 | 0.82 | 0.696 | 0.527 | 0.173 | 0.25 | 0.464 | 0.381 | 0.116 | 0.133 | 0.745 | 0.777 | 0.783 |  | 0.623 | 0.529 | 0.655 | 0.668 |  | 0.675
3 | ABC-1 |  | 0.786 | 0.506 |  | 1.01 | 0.235 | 0.25 | 0.236 | 0.229 | 0.185 |  | 1.11 | 0.823 |  | 0.63 | 0.54 | 0.781 | 0.588 | 0.743 | 0.728
4 | BEN | 0.717 | 0.619 | 0.657 | 0.59 | 0.409 | 0.319 | 0.318 | 0.346 | 0.251 | 0.182 | 1.04 | 1.06 | 0.924 | 0.974 | 1.15 | 0.608 | 0.492 | 0.52 | 0.581 | 0.576
5 | CAL-12T | 0.607 | 0.719 | 0.787 | 0.586 | 0.26 | 0.61 | 0.668 | 0.591 | 0.101 | 0.114 | 0.811 | 0.794 | 0.743 | 0.709 | 0.723 | 0.345 | 0.472 | 0.466 |  | 0.355
6 | ChaGo-K-1 | 0.813 | 0.898 | 0.855 | 0.542 | 0.152 | 0.438 | 0.524 | 0.501 | 0.442 | 0.14 | 0.422 | 0.413 | 0.418 | 0.297 | 0.444 | 0.736 | 0.651 | 0.825 |  | 0.567
7 | EKVX | 0.318 | 0.782 | 0.756 |  | 0.761 | 0.204 | 0.24 | 0.257 | 0.114 | 0.221 | 0.754 | 0.922 | 0.866 | 0.777 | 0.793 | 0.406 | 0.419 | 0.463 | 0.453 | 0.47
8 | EMC-BAC-2 | 1.13 | 1.22 | 1.22 | 1.06 | 0.716 | 0.52 | 0.62 | 0.572 | 0.376 | 0.199 | 0.501 | 0.489 | 0.499 |  | 0.474 | 0.514 | 0.536 | 0.527 | 0.305 | 0.52
9 | EPLC-272H | 0.195 | 0.253 | 0.209 | 0.159 | 0.0687 | 0.269 | 0.314 | 0.307 | 0.124 | 0.038 | 0.624 | 0.729 | 0.805 | 0.974 | 0.837 | 0.287 | 0.365 | 0.327 | 0.3 | 0.299
10 | H3255 | 0.849 | 0.982 | 1.13 | 0.795 | 0.237 | 0.395 | 0.364 | 0.441 | 0.354 | 0.321 | 0.565 | 0.56 | 0.575 | 0.518 | 0.627 | 0.36 | 0.486 | 0.533 | 0.468 | 0.456
11 | HARA | 0.454 | 0.232 | 0.398 | 0.18 | 0.146 | 0.478 | 0.506 | 0.403 | 0.0435 | 0.0629 | 0.876 | 0.929 | 0.957 | 0.793 | 0.635 | 0.351 | 0.441 | 0.262 | 0.511 | 0.46
12 | HCC-15 | 1.12 | 1.29 | 1.31 | 1.12 | 0.453 | 0.443 | 0.538 | 0.48 | 0.222 | 0.1 | 0.724 | 0.648 | 0.712 | 0.76 | 0.772 | 0.622 | 0.69 | 0.722 | 0.391 | 0.687
13 | HCC-44 | 1.01 | 1.02 | 1.03 | 0.988 | 0.716 | 0.169 | 0.289 | 0.145 | 0.107 | 0.122 | 0.923 | 1.04 | 1.05 | 0.955 | 1 | 0.464 | 0.578 | 0.538 | 0.665 | 0.503
14 | HCC-78 | 0.505 | 0.772 | 0.789 | 0.492 | 0.311 | 0.539 | 0.683 | 0.78 | 0.668 | 0.235 | 0.737 | 0.646 | 0.705 | 0.681 | 0.837 | 0.204 | 0.206 | 0.205 | 0.167 | 0.204
15 | HCC-366 | 0.231 | 0.276 | 0.251 | 0.419 | 0.212 | 0.622 | 0.678 | 0.596 | 0.565 | 0.17 | 0.357 | 0.357 | 0.329 |  | 0.356 | 0.101 | 0.141 | 0.183 | 0.11 | 0.17
16 | HCC-827 | 0.194 | 0.202 | 0.207 | 0.201 | 0.17 | 0.37 | 0.44 | 0.428 | 0.394 | 0.279 | 0.618 | 0.58 | 0.637 | 0.517 | 0.655 | 1.1 | 1.03 | 0.943 | 0.96 | 0.961
17 | HOP-62 | 0.619 | 0.699 | 0.404 | 0.173 | 0.0821 | 0.749 | 0.694 | 0.415 | 0.232 | 0.0898 | 0.38 | 0.415 | 0.479 | 0.316 | 0.504 | 0.469 | 0.625 | 0.779 | 0.342 | 0.624
18 | LC-2-ad | 0.798 | 0.913 | 0.856 | 0.794 | 0.608 | 0.567 | 0.668 | 0.612 | 0.453 | 0.181 | 0.806 | 0.689 | 0.712 |  | 0.751 | 0.473 | 0.426 | 0.461 |  | 0.44
19 | LCLC-97TM1 | 0.219 | 0.246 | 0.252 | 0.158 | 0.0638 | 0.423 | 0.401 | 0.497 | 0.302 | 0.147 | 0.308 | 0.32 | 0.353 | 0.384 | 0.428 | 0.205 | 0.18 | 0.182 | 0.128 | 0.194
20 | LCLC-103H | 0.767 | 0.849 | 0.759 | 0.778 | 0.402 | 0.328 | 0.327 | 0.297 | 0.285 | 0.17 | 0.824 | 0.766 | 0.794 | 0.816 | 0.749 | 0.547 | 0.65 | 0.669 | 0.583 | 0.576
21 | LK-2 | 0.369 | 0.519 | 0.399 | 0.0916 | 0.0762 | 0.628 | 0.584 | 0.158 | 0.119 | 0.182 | 0.678 | 0.638 | 0.87 | 0.461 | 0.753 | 0.51 | 0.59 | 0.492 | 0.645 | 0.568
22 | LOU-NH91 | 0.741 | 0.778 | 0.679 | 0.309 | 0.329 | 0.724 | 0.806 | 0.543 | 0.215 | 0.221 | 0.917 | 0.876 | 0.925 | 0.848 | 0.912 | 0.45 | 0.531 | 0.618 | 0.515 | 0.484
23 | LU99A | 0.346 | 0.368 | 0.33 | 0.26 | 0.187 | 0.921 | 0.806 | 0.721 | 0.757 | 0.263 | 0.246 | 0.258 | 0.272 | 0.236 | 0.266 | 0.261 | 0.327 | 0.348 | 0.336 | 0.365
24 | LXF-289 | 1.06 | 1.14 | 1.14 | 0.119 | 0.114 | 0.524 | 0.519 | 0.393 | 0.226 | 0.0577 | 0.994 | 1.12 | 1.15 | 0.993 | 1.11 | 0.757 | 0.803 | 0.726 | 0.757 | 0.782
25 | NCI-H23 | 0.232 | 0.267 | 0.196 | 0.112 | 0.122 | 0.772 | 0.684 | 0.762 | 0.36 | 0.134 | 0.317 | 0.271 | 0.317 |  | 0.388 | 0.441 | 0.539 | 0.505 |  | 0.541
26 | NCI-H322M | 0.677 | 0.527 | 0.682 | 0.59 | 0.464 | 0.77 | 0.84 | 0.827 | 0.494 | 0.306 |  | 0.839 | 0.746 | 0.658 | 0.777 | 0.432 | 0.522 | 0.493 | 0.585 | 0.52
27 | NCI-H1703 | 0.121 | 0.168 | 0.128 | 0.107 | 0.0623 |  |  |  |  |  | 0.389 | 0.757 | 0.528 | 0.414 | 0.463 | 0.286 | 0.224 | 0.236 | 0.273 | 0.284
28 | SW 900 |  | 0.67 | 0.226 | 0.168 | 0.206 | 0.431 | 0.937 | 0.133 | 0.163 | 0.138 | 0.792 | 0.814 | 0.831 | 1.06 | 0.863 |  |  |  |  | 
